According to US20210340552A1, “High-Throughput Screening Platform for Longevity Genes and Anti-Aging Drugs” (The Regents of the University of California, priority 2018, published 2021):

System: yeast cells
Test: Replicative lifespan (RLS) measurement with the DAP yeast strain and 96-well microfluidic device
Assay type: cell-based, Saccharomyces cerevisiae
Description: The IDS2GH or IDS2RH transformed yeast cells were cultured in YEPG [For 1 L medium: Bacto yeast extract (Difco 0127-17) (1%) 10 g, Bacto peptone (Difco 0118-17) (2%) 20 g, Galactose (2%) 20 g] at 30° C. for 15 hours, after which time the cells were diluted 1:20 in fresh YEPG and grown for another 3 hours. The cells were centrifuged and washed 3 times with YEP [For 1 L medium: Bacto yeast extract (Difco 0127-17) (1%) 10 g, Bacto peptone (Difco 0118-17) (2%) 20 g]. Finally, the cells were resuspended in an equal volume of YEP, then diluted at a 1:5 ratio in fresh YEP and incubated at 30° C. for another 3 hours; this last step allowed separation of any aggregates of cells.
The water in the wells was discarded, and 100 μl of cells (˜1×10^6 cells/ml) were loaded into inlet wells in columns 1, 4, 7, 10 of the multiwell plate. The plate was then sealed with the 32-channel cover by applying vacuum to the sealing channel, and cell flow started by applying 4 psi air pressure to the loading channel for 10 seconds. Any remaining cells in the wells are discarded, and 300 μl autoclaved ddH2O added to wash the cells, applying 25 psi air pressure to the loading channel for 10 seconds. The remaining water in the wells was again discarded, and 300 μl YEPD [For 1 L medium: Bacto yeast extract (Difco 0127-17) (1%) 10 g, Bacto peptone (Difco 0118-17) (2%) 20 g, Dextrose (2%) 20 g] added, and the cells were washed by applying 2 psi air pressure to the loading channel for 240 seconds. The remaining YEPD in the wells was discarded and 300 μl fresh YEPD added to each well in columns 1, 3, 4, 6, 7, 9, 10, 12. […]
Using the DAP system and the high-throughput microfluidic devices, the lifespan of a number of mutants and the effect of several drugs on lifespan were analyzed. […] The total number of cells in each trapping unit was counted and the fluorescent signal was used to determine the number of DAP mother cells loaded in the trapping unit, allowing the lifespan of the mother cells to be determined unambiguously. […]

CN(C)C(=N)N=C(N)N [metformin]
lifespan extension effect (range of concentrations tested from 4 μM to 8 mM, data not shown): not observed

CO[C@H]1C[C@@H]2CC[C@@H](C)[C@@](O)(O2)C(=O)C(=O)N2CCCC[C@H]2C(=O)O[C@H]([C@H](C)C[C@@H]2CC[C@@H](O)[C@H](OC)C2)CC(=O)[C@H](C)/C=C(\C)[C@@H](O)[C@@H](OC)C(=O)[C@H](C)C[C@H](C)/C=C/C=C/C=C/1C [rapamycin]
lifespan extension (100 nM concentration, three independent experiments, p=2.4×10^−10, FIG. 4A): 19%

NCCCCNCCCN [spermidine]
lifespan extension (200 JIM concentration, p=6×10^−6, FIG. 4B): 28%
